Patent US9284345B2 (priority 2007, dated 2016)
Read-outs that look alike come from different tables or passages of the source.

How the values were obtained:
[1] = system: Shionogi mouse mammary carcinoma cells; assay: cells; format: cell-based; conditions: for Ki: read-out: Shionogi cells Antiandrogenic activity Ki
Human Androgen Receptor = biological target: T1, Human Androgen Receptor (Homo sapiens, UniProt P10275); format: binding
T1 construct: expressed in transfected cells; host or cells: HEK-293 cells stably transfected with the pCMVneo-hAR plasmid (G-418 selection); cytosol used
T1 sequence (P10275 1-920): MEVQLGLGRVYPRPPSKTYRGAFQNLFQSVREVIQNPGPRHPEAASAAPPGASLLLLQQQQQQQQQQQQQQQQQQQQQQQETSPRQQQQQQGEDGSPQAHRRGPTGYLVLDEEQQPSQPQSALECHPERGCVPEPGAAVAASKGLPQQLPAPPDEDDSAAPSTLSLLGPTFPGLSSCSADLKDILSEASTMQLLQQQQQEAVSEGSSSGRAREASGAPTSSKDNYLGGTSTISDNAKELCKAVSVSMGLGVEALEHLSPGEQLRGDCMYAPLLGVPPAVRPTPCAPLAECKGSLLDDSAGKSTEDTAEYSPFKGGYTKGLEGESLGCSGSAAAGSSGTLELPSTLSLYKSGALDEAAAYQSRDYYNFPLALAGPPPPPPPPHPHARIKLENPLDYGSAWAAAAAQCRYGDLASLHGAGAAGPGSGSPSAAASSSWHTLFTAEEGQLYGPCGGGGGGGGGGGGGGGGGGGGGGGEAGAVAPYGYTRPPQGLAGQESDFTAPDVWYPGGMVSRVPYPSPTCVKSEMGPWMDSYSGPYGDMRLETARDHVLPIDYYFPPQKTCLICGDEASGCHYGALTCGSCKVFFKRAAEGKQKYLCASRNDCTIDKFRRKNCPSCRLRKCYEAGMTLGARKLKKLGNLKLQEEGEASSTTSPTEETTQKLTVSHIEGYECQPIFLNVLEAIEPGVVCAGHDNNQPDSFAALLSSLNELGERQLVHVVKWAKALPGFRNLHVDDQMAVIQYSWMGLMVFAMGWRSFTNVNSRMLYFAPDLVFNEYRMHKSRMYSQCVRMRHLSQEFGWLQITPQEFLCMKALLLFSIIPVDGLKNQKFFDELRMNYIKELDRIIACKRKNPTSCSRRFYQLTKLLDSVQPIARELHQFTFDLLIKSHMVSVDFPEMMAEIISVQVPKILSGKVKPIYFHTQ

Immature Rat CX = conditions: for In Vivo Agonist % Change vs CX (DHT = +100%) SV / In Vivo Agonist % Change vs CX (DHT = +100%) VP: po
Intact Rat = assay: In vivo activity in intact rat (organ and muscle weight); conditions: rat, in vivo
Immature Rat CX + DHT = assay: animal or person; format: in vivo; conditions: po; for change in vivo at 0.1 mg / change in vivo at 0.5 mg: Rattus norvegicus, 168 h
[2] = read-out: In Vivo Antagonist % Change vs DHT (CX = −100%) SV
[3] = read-out: In Vivo Antagonist % Change vs DHT (CX = −100%) VP

Row | SMILES | Shionogi cells Antiandrogenic activity Ki OH-Flu/Ki compound [1] | Ki [1] | Human Androgen Receptor Binding RBA (%) R1881 = 100% (Human Androgen Receptor) | In Vivo Agonist % Change vs CX (DHT = +100%) SV (Immature Rat CX) | In Vivo Agonist % Change vs CX (DHT = +100%) VP (Immature Rat CX) | other results
1 | Cc1c(C#N)ccc2c1CCC1C2CCC2(C)C1CCCC2(O)Cc1cc[n+]([O-])cc1 (stereo not shown) [EM-9140] | 11 | 1.2 nM | 1.4% | 0% | 0% | –
2 | CCC1CC2(C)C(CCC2(O)Cc2cc[n+]([O-])cc2)C2CCc3c(ccc(C#N)c3F)C12 (stereo not shown) [EM-8987] | – | – | 26% | – | – | % of stim of basal at 10^−7M (% over basal) [1]: +73%; % of stim of basal at 10^−7 M (DHT = 100%) [1]: +74%; % of inh of DHT at 10^−7 M (Basal = 100%) ([1]; 0.0003 µM): +35%; In Vivo Agonist Rat CX % change vs CX (DHT CONT = +100%) Bulbo (Immature Rat CX): +118 ± 10%; In Vivo Agonist Rat CX % change vs CX (DHT CONT = +100%) SV (Immature Rat CX): +25 ± 5%; In Vivo Agonist Rat CX % change vs CX (DHT CONT = +100%) VP (Immature Rat CX): +56 ± 11%; In Vivo Intact Rat % change vs Intact CONT (Intact CONT = +100%; CX CONT = 0%) Bulbo (Intact Rat): +292 ± 30%; In Vivo Intact Rat % change vs Intact CONT (Intact CONT = +100%; CX CONT = 0%) SZ (Intact Rat): +110 ± 13%; In Vivo Intact Rat % change vs Intact CONT (Intact CONT = +100%; CX CONT = 0%) VP (Intact Rat): +84 ± 4%
3 | C[C@]12CCC3c4ccc(C#N)c(Cl)c4CCC3C1CC[C@@]2(O)Cc1ccncc1F (stereo partly shown) [EM-5988] | mixed | – | 97 ± 19% | +10 ± 0% | +10 ± 0% | Shionogi cells Antiandrogenic activity Ki (nM) [1]: mixed; In Vivo Antagonist % Change vs DHT (CX = −100%) SV (Immature Rat CX + DHT; rat, in vivo): [−83 ± 3] %; In Vivo Antagonist % Change vs DHT (CX = −100%) VP (Immature Rat CX + DHT; rat, in vivo): [−71 ± 5] %
4 | C[C@]12CCC3c4ccc(C#N)cc4CCC3C1CC[C@@]2(O)Cc1ccc(-c2ccncc2)cc1 (stereo partly shown) [EM-4240] | 1.4 | 24 nM | 110% | +3 ± 1% | +12 ± 3% | change in vivo at 0.1 mg (Immature Rat CX + DHT; [2]): -58 ± 2%; change in vivo at 0.5 mg (Immature Rat CX + DHT; [2]): -85%; change in vivo at 0.1 mg (Immature Rat CX + DHT; [3]): -46 ± 9%; change in vivo at 0.5 mg (Immature Rat CX + DHT; [3]): -52%
5 | C[C@]12CCC3c4ccc(C#N)c(Cl)c4CCC3C1CCC[C@@]2(O)Cc1ccncc1 (stereo partly shown) [EM-5943] | – | 2.1 ± 1.8 nM | 26% | +3 ± 4% | +2 ± 2% | –
6 | C[C@]12CCC3c4ccc(C#N)c(F)c4CCC3C1CC[C@@]2(O)Cc1ccncc1 (stereo partly shown) [EM-5855] | 11 ± 1 | 1 ± 0.2 nM | 8.2 ± 0.5% | [1 ± 4] % | [2 ± 1] % | –
7 | C[C@]12CCC3c4ccc(C#N)c(Cl)c4CCC3C1CC[C@@]2(O)Cc1cc[n+]([O-])cc1F (stereo partly shown) [EM-5987] | – | 0.35 ± 0.15 nM | 6.8 ± 1.7% | – | – | change in vivo at 0.5 mg (Immature Rat CX + DHT; [2]): -83%; change in vivo at 0.5 mg (Immature Rat CX + DHT; [3]): -69%
8 | Cc1c(C#N)ccc2c1CCC1C2CC[C@@]2(C)C1CC[C@@]2(O)Cc1ccncc1 (stereo partly shown) [EM-5984] | 4.0 | 1.9 nM | 29% | 0% | 0% | –
